Test results: publication PMC11320178 (Chemical Science, 2024)
Where no end group is shown, it is not given here.

Assays:
[1] = Stability of the cyclic peptide against ROS environment; format: physicochemical; conditions: P1 ∼100 μM, ∼150 μM H2O2 in PBS pH 7.4, after 6 h, LC-MS
[2] = pH 2
[3] = format: physicochemical; conditions: equimolar semicarbazide derivative (∼100 μM) in PBS pH 7.4, 20 min, LC-MS

Substance: CIITRPC (also: sidechain bridge or staple (positions not given here)) [P1]
- Stability in H2O2 [1]: remarkable stability
- Stability under a wide range of pH values (no complete dissociation of the thiazolidine ring) [2]: high stability
- Linearization by semicarbazide (diazaborine conjugate formation) [3]: linearized
